In the supplement of paper PMC11208160:

Assay: recombinant barcode read abundance after kanamycin selection (control-corrected) (log10(CPM+1)); higher = more efficient recombination; sequences stand for … in AGTGCAGAGAAAATCGGCCAGTTTTCTCTGCCTGCAGTCCGCATGCCGT…AGATTTATGCAGCGGACTGCCTTTCTCCCAAAGTGATAAACCGGACAGTATCATGGACCGGTTTTCCCGGTAATCCGTATTTGCAAGGTTGGTTTCACT; site = the 11-nt target
Summary of the method: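 Each value is log10(CPM+1). It describes recombination efficiency, taken as averaged, control-corrected counts per million of barcodes at recombinant junctions. The pooled E. coli library paired targets with IS621 bridge RNA target-binding loops, was co-electroporated with a donor plasmid, and was plated twice on chloramphenicol/ampicillin LB agar (control) and twice on chloramphenicol/ampicillin/kanamycin containing 0.1 mM IPTG.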
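Note: IS621 recombinase and bridge RNA in Escherichia coli cells.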

In order of rising “recombinant barcode read abundance (log10)” value:
1. AGGGCTTCTTGGGTTCTAACCTGTTGCTA (site ACGGCTTCTTA)  0
2. AGGTGTCCTTGGGTTCTAACCTGTTGCTT (site CGGTGTCCTAA)  0.0102
3. AGTACGTCTTGGGTTCTAACCTGTTGCTT (site GTTACGTCTAA)  0.0179
4. AGTAAGACTTGGGTTCTAACCTGTTGCAT (site AGTAAGACTAC)  0.0256
5. AGGTCCGCTTGGGTTCTAACCTGTTGCTA (site CACCAGCCTAT)  0.026
6. AGGTCAACTTGGGTTCTAACCTGTTGCCG (site TAAGGTCCTAA)  0.0279
7. AGGGATCCTTGGGTTCTAACCTGTTGCGG (site AAGTATCCTCC)  0.032
8. AGGGACTCTTGGGTTCTAACCTGTTGCCG (site TGGGACACTCG)  0.0423
9. AGGGGATCTTGGGTTCTAACCTGTTGCCT (site AGTGGAGCTAG)  0.0518
10. AGGTTAGCTTGGGTTCTAACCTGTTGCTA (site AGGTTAGCTTA)  0.0546
11. AGTAACCCTTGGGTTCTAACCTGTTGCCT (site AATAACCCTAG)  0.0627
12. AGGTGCTCTTGGGTTCTAACCTGTTGCCT (site AAGTGCTCTAG)  0.0629
13. AGGTCAACTTGGGTTCTAACCTGTTGCCG (site AGGTCAACTCG)  0.0699
14. AGGGGAGCTTGGGTTCTAACCTGTTGCGG (site ATGGGAGCTTC)  0.0749
15. AGGTCCTCTTGGGTTCTAACCTGTTGCTA (site TGATCCTCTTA)  0.0783
16. AGTACTCCTTGGGTTCTAACCTGTTGCTG (site AATACTACTCA)  0.085
17. AGGTCCTCTTGGGTTCTAACCTGTTGCAT (site AGGTCCTCTAC)  0.0867
18. AGGTCACCTTGGGTTCTAACCTGTTGCCT (site AGGTCACCTAA)  0.0905
19. AGGGGCTCTTGGGTTCTAACCTGTTGCTG (site ACGGGCTCTAA)  0.0932
20. AGGGGCACTTGGGTTCTAACCTGTTGCCG (site ACGGTCACTCG)  0.104
21. AGGTGCTCTTGGGTTCTAACCTGTTGCCT (site ATGTGCTCTAG)  0.107
22. AGTAAGCCTTGGGTTCTAACCTGTTGCAG (site ACTAAGCCTCC)  0.133
23. AGTAACCCTTGGGTTCTAACCTGTTGCCT (site ATTAACCCTAG)  0.137
24. AGGGAGACTTGGGTTCTAACCTGTTGCTC (site CACTTTGCTAG)  0.151
25. AGTAACCCTTGGGTTCTAACCTGTTGCCT (site ACTAACCCTAG)  0.158
26. AGTCATTCTTGGGTTCTAACCTGTTGCAT (site AGTCAGTCTAC)  0.166
27. AGTACTCCTTGGGTTCTAACCTGTTGCTG (site AGTACTCCTCA)  0.172
28. AGTAAGCCTTGGGTTCTAACCTGTTGCCT (site AGTTAGCCTAG)  0.173
29. AGTATAACTTGGGTTCTAACCTGTTGCTG (site GTGTACCCTGT)  0.178
30. AGGTAACCTTGGGTTCTAACCTGTTGCCT (site TGGTAACCTAG)  0.179
31. AGGTGCTCTTGGGTTCTAACCTGTTGCCT (site ACGTGCTCTAG)  0.179
32. AGGGCACCTTGGGTTCTAACCTGTTGCCA (site ATGGCACCTAG)  0.186
33. AGTAAGCCTTGGGTTCTAACCTGTTGCCT (site AGTGAGCCTAG)  0.187
34. AGTAAGACTTGGGTTCTAACCTGTTGCAT (site AGTAAGACTAA)  0.197
35. AGTACGTCTTGGGTTCTAACCTGTTGCTT (site AGTACGTCTAA)  0.201
36. AGGTCACCTTGGGTTCTAACCTGTTGCCT (site AGGTCACCTAT)  0.221
37. AGGTAACCTTGGGTTCTAACCTGTTGCCT (site CGGTAACCTAG)  0.23
38. AGTATAACTTGGGTTCTAACCTGTTGCTG (site AGTATAACTCA)  0.24
39. AGTAAGCCTTGGGTTCTAACCTGTTGCCT (site AGTCAGCCTAG)  0.243
40. AGGTCCTCTTGGGTTCTAACCTGTTGCAT (site AGGTCCTCTAA)  0.282
41. AGGTAACCTTGGGTTCTAACCTGTTGCCT (site AGGTAACCTAG)  0.401
42. AGTAAGACTTGGGTTCTAACCTGTTGCAT (site AGTAAGACTAG)  0.423
43. AGTCATTCTTGGGTTCTAACCTGTTGCAT (site AGTCATTCTAT)  0.45
44. AGGTTAGCTTGGGTTCTAACCTGTTGCTA (site GCAAGTACTCT)  0.538
45. AGGTCCTCTTGGGTTCTAACCTGTTGCAT (site AGGTCCTCTAG)  0.707
46. AGTAAGCCTTGGGTTCTAACCTGTTGCCT (site AGTAAGCCTAG)  0.864
47. AGGTAACCTTGGGTTCTAACCTGTTGCCT (site GGGTAACCTAG)  0.885
48. AGGTCACCTTGGGTTCTAACCTGTTGCCT (site AGGTCACCTAC)  0.897
49. AGTAAGCCTTGGGTTCTAACCTGTTGCAG (site AGTAAGCCTCT)  1.12
50. AGTAACCCTTGGGTTCTAACCTGTTGCCT (site AGTAACCCTAG)  1.22
51. AGGGCACCTTGGGTTCTAACCTGTTGCCA (site AGGGCACCTTG)  1.26
52. AGGTCCGCTTGGGTTCTAACCTGTTGCTA (site AGGTCCGCTTA)  1.4
53. AGGTGTCCTTGGGTTCTAACCTGTTGCTT (site AGGTGTCCTAA)  1.4
54. AGTAAGACTTGGGTTCTAACCTGTTGCAT (site AGTAAGACTAT)  1.41
55. AGGTGCTCTTGGGTTCTAACCTGTTGCCT (site AGGTGCTCTAG)  1.6
56. AGGGACTCTTGGGTTCTAACCTGTTGCCG (site AGGGACTCTCG)  1.71
57. AGGGGCACTTGGGTTCTAACCTGTTGCCG (site AGGGGCACTCG)  1.83
58. AGGTCACCTTGGGTTCTAACCTGTTGCCT (site AGGTCACCTAG)  1.83
59. AGGGGATCTTGGGTTCTAACCTGTTGCCT (site AGGGGATCTAG)  1.86
60. AGGGCTTCTTGGGTTCTAACCTGTTGCTA (site AGGGCTTCTTA)  1.87
61. AGGTCCTCTTGGGTTCTAACCTGTTGCTA (site AGGTCCTCTTA)  1.96
62. AGGTCCTCTTGGGTTCTAACCTGTTGCAT (site AGGTCCTCTAT)  2.24
63. AGGGGAGCTTGGGTTCTAACCTGTTGCGG (site AGGGGAGCTCC)  2.35
64. AGGGAGACTTGGGTTCTAACCTGTTGCTC (site AGGGAGACTGA)  2.64
65. AGGGATCCTTGGGTTCTAACCTGTTGCGG (site AGGGATCCTCC)  2.7
66. AGGGGCTCTTGGGTTCTAACCTGTTGCTG (site AGGGGCTCTCA)  3.01
